Legend:
[1] = tested on: SARS-CoV; experiment: Antiviral activity against SARS-CoV-1 infected Chlorocebus sabaeus Vero E6 cells assessed as inhibition of viral replication; type: functional; conditions: Severe acute respiratory syndrome-related coronavirus, Vero C1008; read-out: ID50 (the source's name)
[2] = tested on: SARS-CoV-2; experiment: Antiviral activity against SARS-CoV-2 infected Chlorocebus sabaeus Vero E6 cells assessed as inhibition of viral replication; type: functional; conditions: Severe acute respiratory syndrome coronavirus 2, Vero C1008; read-out: ID50 (the source's name)
[3] = target: Replicase polyprotein 1ab (Severe acute respiratory syndrome-related coronavirus, UniProt P0C6X7); experiment: Inhibition of SARS-CoV-1 papain-like protease
[4] = target: Replicase polyprotein 1ab (Severe acute respiratory syndrome coronavirus 2, UniProt P0DTD1); experiment: Inhibition of SARS-CoV-2 papain-like protease

| SMILES | IC50 [1] [µM] | IC50 [2] [µM] | IC50 [3] [µM] | IC50 [4] [µM] |
| --- | --- | --- | --- | --- |
| COc1ccc(CNC(=O)C2CCN([C@H](C)c3cccc4ccccc34)CC2)cc1 | 10.2 | 17 | 0.56 | 0.92 |
| COc1cccc(CNC(=O)C2CCN([C@H](C)c3ccc4ccccc4c3)CC2)c1 | – | 27 | 13.2 | – |
| CCCN(CCC)C(=O)c1ccc(C)c(C(=O)N[C@H](C)c2cccc3ccccc23)c1 | – | > 100 | – | > 100 |
| C[C@@H](NS(=O)(=O)c1ccc([N+](=O)[O-])cc1)c1cccc2ccccc12 | – | 56 | – | 6.3 |
| C[C@@H](NC(=O)[C@@H](Cc1c[nH]c2ccccc12)NC(=O)OC(C)(C)C)c1cccc2ccccc12 | – | 36 | – | > 100 |
| C[C@@H](NC(=O)[C@H](N)Cc1ccccc1)c1cccc2ccccc12 | – | 76 | – | > 100 |
| COc1ccc(C(=O)N[C@H](C)c2cccc3ccccc23)cc1N | – | > 100 | – | 35.2 |
| C[C@@H](NC(=O)[C@H](NC(=O)OC(C)(C)C)c1ccccc1)c1cccc2ccccc12 | – | > 100 | – | 13.3 |
| C[C@@H](NS(=O)(=O)c1cccc([N+](=O)[O-])c1)c1cccc2ccccc12 | – | 38 | – | 15.5 |
| C[C@@H](NC(=O)[C@@H](NC(=O)OC(C)(C)C)c1ccccc1)c1cccc2ccccc12 | – | > 100 | – | 13.2 |
| C[C@@H](NC(=O)[C@@H](Cc1ccccc1)NC(=O)OC(C)(C)C)c1cccc2ccccc12 | – | 38 | – | > 100 |
| C[C@@H](NS(=O)(=O)c1ccc(N)cc1)c1cccc2ccccc12 | – | > 100 | – | > 100 |
| Cc1ccc(C(=O)NC(C)C)cc1C(=O)N[C@H](C)c1cccc2ccccc12 | – | > 100 | – | > 100 |
| CCCN(CCC)C(=O)c1cccc(C(=O)N[C@H](C)c2cccc3ccccc23)c1 | – | 15 | – | 15.9 |
| C[C@@H](NS(=O)(=O)c1cccc(N)c1)c1cccc2ccccc12 | – | 64 | – | – |
| C[C@@H](NC(=O)[C@H](N)Cc1c[nH]c2ccccc12)c1cccc2ccccc12 | – | 31 | – | > 100 |
| COc1ccc([C@@H](C)NC(=O)c2cc(N)ccc2C)c2ccccc12 | – | 36 | – | > 100 |
| Cc1ccc(N)cc1C(=O)N[C@H](C)c1cccc2ccccc12 | – | 38 | – | – |
| CNCc1ccc(C)c(C(=O)N[C@H](C)c2cccc3ccccc23)c1 | – | 20 | – | – |
| Cc1ccc(CN)cc1C(=O)N[C@H](C)c1cccc2ccccc12 | – | 24 | – | – |
